Assay results from article PMC8393326, “A Thermodynamic Analysis of the Binding Specificity between Four Human PDZ Domains and Eight Host, Viral and Designed Ligands” (Biomolecules, 2021).
Like-named read-outs stand apart in the source and are kept apart here. Where no end group is shown, it is not given here.

Tests used:
Erbin-PDZ [1] = conditions: ERBB2 C-terminal tail of 9 residues; cited from earlier work
Excerpt: Again, no class II or III peptides were able to bind PSD95-PDZ3 either. […] Instead, the striking resu ...

Erbin-PDZ [2] = molecular target: T1, Erbin-PDZ (Homo sapiens, UniProt Q96RT1); test: ITC titration of Erbin-PDZ with peptides; type: binding; design: key to interaction or not with Erbin PDZ: The tick (✓) and the cross (✕) signs mean whether there is interaction or not, respectively, as demonstrated in this study; The tick (✓) and the cross (✕) signs mean whether there is interaction or not, respectively, as demonstrated in this study; conditions: for Kd: 50 mM potassium phosphate pH 7.5, protein 70 μM in cell, peptide 900 μM, single-site model, n 0.8 to 1.1; for interaction or not with Erbin PDZ: Figure 1 summary, ITC, and DSC where ITC showed no binding
T1 construct: made in house; host or cells: Escherichia coli BL21-DE3
Method: (§1) The DNA encoding the sequences of PSD95-PDZ2 (residues 155–249, according to PSD95 numbering), PSD95-PDZ3 (residues 302–415, according to PSD95 numbering), nNOS-PDZ (residues 1–127, in nNOS numbering) and Erbin-PDZ (given generously by Prof. Sachdev Sidhu, University of Toronto, Toronto, ON, Canada), were sub-cloned into pBAT4 vector (EMBL Core Purification Facility, Heidelberg, Germany) and expressed in Escherichia coli BL21-DE3 cells. Protein purification was carried out as previously described. Briefly, cultures were over-expressed overnight and centrifuged. After cell lysis with a French press, the lysates were centrifuged and the pH of the supernatant was lowered down to a pH of 3 with diluted HCl. Upon centrifugation, ammonium sulfate was added to the samples, which were then injected into an AKTA FPLC for preparative size exclusion chromatography. Roughly 15 milligrams of protein per liter of LB culture were obtained and purity was determined by SDS-Page electrophoresis. MALDI-TOF spectrometry, performed at the Scientific Instrumentation Services (CIC) of the University of Granada (Granada, Spain), confirmed the molecular mass for each PDZ domain. Extinction coefficients, determined as described, were used to calculate sample concentration. Experimental samples were always prepared by extensive dialysis against 50 mM potassium phosphate buffer at a pH of 7.5 and 4 °C.
(§2) Calorimetric titrations of the PDZ domains with the peptides were undertaken at 25 °C on an ITC-200 titration microcalorimeter (Microcal Inc., Northampton, MA, USA), as previously described. Protein concentrations in the cell were routinely 70 μM and peptides solutions were prepared using the dialysis buffer to have a final concentration of 900 μM. Titrations were all made by injecting 2 μL volumes of ligand solution, with a final number of 19 injections per experiment. As a control and reference, independent experiments were carried out with only buffer in the calorimeter cell with the same ligand solutions to determine the corresponding heat dilution. The dilution isotherms were then subtracted from that obtained for protein titration. The binding stoichiometry, n, the dissociation constant, Kd and the corresponding enthalpy change, ΔH, were determined by fitting the resulting titration isotherm to a model considering a single ligand binding site using ORIGIN 7.0 (OriginLab Corporation, Northampton, MA, USA, 2002).
(§3) We performed ITC experiments at 25 °C between all the selected PDZ domains and peptides. For the sake of comparison, the experiments were all conducted in the same buffer conditions, 50 mM potassium phosphate and pH of 7.5, which presents the advantage of having an insignificant protonation heat, meaning that the experimentally determined enthalpy changes should just account for the net heat of reaction. A table summarizing all interactions is shown in Figure 1, whilst we have just included the successful experiments graphs, both in Figure 2 and in the SI (Figure S1).

PSD95-PDZ2 [3] = molecular target: T2, PSD95-PDZ2 (Homo sapiens, UniProt P78352); test: ITC titration of PSD95-PDZ2 with peptides; type: binding; design: key to interaction or not with PSD95 PDZ2: The tick (✓) and the cross (✕) signs mean whether there is interaction or not, respectively, as demonstrated in this study; The tick (✓) and the cross (✕) signs mean whether there is interaction or not, respectively, as demonstrated in this study; conditions: for Kd: ITC, 25 °C, 50 mM potassium phosphate pH 7.5, protein 70 μM in cell, peptide 900 μM, single-site model, n 0.8 to 1.1; for interaction or not with PSD95 PDZ2: Figure 1 summary, ITC, and DSC where ITC showed no binding
T2 construct: PSD95-PDZ2 (residues 155–249, according to PSD95 numbering); made in house; host or cells: Escherichia coli BL21-DE3
Method: as §1, §2, §3

PSD95-PDZ3 [4] = molecular target: T3, PSD95-PDZ3 (Homo sapiens, UniProt P78352); test: ITC titration of PSD95-PDZ3 with peptides; type: binding; design: key to interaction or not with PSD95 PDZ3: The tick (✓) and the cross (✕) signs mean whether there is interaction or not, respectively, as demonstrated in this study; The tick (✓) and the cross (✕) signs mean whether there is interaction or not, respectively, as demonstrated in this study; conditions: for Kd: ITC, 25 °C, 50 mM potassium phosphate pH 7.5, protein 70 μM in cell, peptide 900 μM, single-site model, n 0.8 to 1.1; for interaction or not with PSD95 PDZ3: Figure 1 summary, ITC, and DSC where ITC showed no binding
T3 construct: PSD95-PDZ3 (residues 302–415, according to PSD95 numbering); made in house; host or cells: Escherichia coli BL21-DE3
Method: as §1, §2, §3

nNOS-PDZ = test: DSC of nNOS-PDZ with and without peptides (Tm displacement); type: binding, human; design: key to interaction or not with nNOS PDZ: The tick (✓) and the cross (✕) signs mean whether there is interaction or not, respectively, as demonstrated in this study; The tick (✓) and the cross (✕) signs mean whether there is interaction or not, respectively, as demonstrated in this study; conditions: for ΔTm of nNOS-PDZ: DSC, PDZ:peptide 1:3, 50 mM potassium phosphate pH 7.5, nNOS-PDZ alone 55 °C; for interaction or not with nNOS PDZ: Figure 1 summary, no binding by ITC, interaction shown by DSC
Method: (§4) Experiments were carried out in a VP-DSC instrument from Microcal INC. as described elsewhere. The buffer conditions were the same as with ITC experiments, 50 mM buffer potassium phosphate at a pH of 7.5. For experiments including the peptides, the final concentration ratio was 1:3 (protein:peptide). Final data were obtained after treatment with ORIGIN 7.0 (OriginLab Corporation, Northampton, MA, USA, 2002).
(§5) The final ratio of PDZ:peptide was always 1:3. DSC is also a calorimetric technique but that allows finding a more subtle binding, weaker than that from ITC [33]. Undoubtedly, ITC presents greater advantages, since it gives an exhaustive characterization of the binding interaction, granting the whole thermodynamics of the system; nevertheless, if the interactions are out of the ITC range, usually when they are weak (Kd values in the mM range), it is not sensitive enough to detect binding. By contrast, DSC can detect weak binding by a displacement of the melting temperature (Tm) due to the stabilization that occurs upon binding. Essentially, when a ligand is bound to the protein, energy is needed to decouple the interacting pair before protein denaturalization. In this way, the Tm is increased and the ΔTm is proportional to the interaction energy.

PSD95-PDZ3 [5] = molecular target: T3, PSD95-PDZ3; conditions: cited from earlier work
Excerpt: Unfortunately, the calorimetric traces for nNOS-PDZ are highly irreversible, which prevents an analysis that would potentially yield a Kd value. Instead, we can approximately estimate a Kd range based on previous cases in PDZ binding. We have taken as a reference two PDZ-peptide interactions. Firstly, the binding of PSD95-PDZ3 with the peptide KKETAV formerly described by us. We had previously performed both ITC and DSC with PSD95-PDZ3 and KKETAV. The concentrations ...

PSD95-PDZ2 [6] = molecular target: T2, PSD95-PDZ2; test: DSC of PSD95-PDZ2 with and without peptides; type: binding; conditions: PDZ:peptide 1:3, 50 mM potassium phosphate pH 7.5 (Figure S2)
Method: as §4, §5

T1 sequence (Q96RT1 1321-1410 limits assumed): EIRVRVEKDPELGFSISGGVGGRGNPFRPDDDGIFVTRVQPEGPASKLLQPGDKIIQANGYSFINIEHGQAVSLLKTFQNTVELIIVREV
T2 sequence (P78352 155-249): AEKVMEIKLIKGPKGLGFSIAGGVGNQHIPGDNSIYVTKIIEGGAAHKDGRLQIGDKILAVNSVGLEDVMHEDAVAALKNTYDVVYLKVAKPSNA
T3 sequence (P78352 302-415): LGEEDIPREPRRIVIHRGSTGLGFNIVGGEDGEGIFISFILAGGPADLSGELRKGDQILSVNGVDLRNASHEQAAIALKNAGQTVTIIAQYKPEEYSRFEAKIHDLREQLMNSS

EYLGLDVPV [ERBB2 C-terminal tail comprising 9 residues, literature value]
Kd (Erbin-PDZ [1]): ~50 µM

FRETEV [HTLV1 Tax]
Kd (Erbin-PDZ [2]; ITC, 25 °C): 7.8 ± 0.9 µM | Kd (PSD95-PDZ2 [3]): 1.5 ± 0.1 µM | Kd (PSD95-PDZ3 [4]): 3.8 ± 0.2 µM

GLDVPV (UniProt P04626 1250-1255, looked up, fragment) [ERBB2, six-residue C-terminal peptide of host receptor tyrosine kinase ERBB2, class II PDZ ligand]
interaction or not with Erbin PDZ (Erbin-PDZ [2]): ✕ | binding to Erbin-PDZ by ITC (Erbin-PDZ [2]; ITC, 25 °C, 50 mM potassium phosphate pH 7.5): lack of binding | interaction or not with PSD95 PDZ2 (PSD95-PDZ2 [3]): ✕ | ΔTm of nNOS-PDZ (nNOS-PDZ): 2 °C | interaction or not with nNOS PDZ (nNOS-PDZ): ✓ | interaction or not with PSD95 PDZ3 (PSD95-PDZ3 [4]): ✕

IAESSV [HTLV3 Tax]
Kd (Erbin-PDZ [2]; ITC, 25 °C): 23 ± 9 µM | Kd (PSD95-PDZ2 [3]): 20 ± 3.8 µM | Kd (PSD95-PDZ3 [4]): 43 ± 10 µM

KIATLV [AdV E4 ORF1]
Kd (PSD95-PDZ2 [3]): 11.5 ± 0.5 µM

KKETAV
ΔTm of PSD95-PDZ3 (PSD95-PDZ3 [5]; DSC, PDZ:peptide 1:3): about 9 °C | Kd (PSD95-PDZ3 [5]; ITC, same concentrations as this study): 1.5 µM

LLDEIAV [CAPON, C-terminus of CAPON, cytoplasmic protein; class II peptide, cognate nNOS partner]
interaction or not with Erbin PDZ (Erbin-PDZ [2]): ✕ | interaction or not with PSD95 PDZ2 (PSD95-PDZ2 [3]): ✕ | ΔTm of nNOS-PDZ (nNOS-PDZ): 3 °C | interaction or not with nNOS PDZ (nNOS-PDZ): ✓ | interaction or not with PSD95 PDZ3 (PSD95-PDZ3 [4]): ✕

TGWETWV [Erbin PDZ binder]
ΔTm of PSD95-PDZ2 (PSD95-PDZ2 [6]): around 6 °C | Kd (Erbin-PDZ [2]; ITC, 25 °C): 0.24 ± 0.08 µM | Kd (PSD95-PDZ2 [3]): 5.7 ± 0.2 µM

VVKVDSV [MelR, C-terminal region of a melatonin receptor]
interaction or not with Erbin PDZ (Erbin-PDZ [2]): ✕ | interaction or not with PSD95 PDZ2 (PSD95-PDZ2 [3]): ✕ | ΔTm of nNOS-PDZ (nNOS-PDZ): 3 °C | interaction or not with nNOS PDZ (nNOS-PDZ): ✓ | interaction or not with PSD95 PDZ3 (PSD95-PDZ3 [4]): ✕
